The source of these data is patent US20240352000A1, “NOVEL PYRIMIDINE-2,4-DIAMINE DERIVATIVES, PREPARATION METHOD THEREFOR, AND PHARMACEUTICAL COMPOSITION CONTAINING SAME AS ACTIVE INGREDIENT FOR PREVENTION OR TREATMENT OF CANCER” (KOREA RESEARCH INSTITUTE OF CHEMICAL TECHNOLOGY, priority 2021, published 2024).

What all share (type): cell-based
Common to all, as to conditions: 72 hours

The subject of one assay is Ba/F3 EGFR L858R. In words: CellTiter-Glo cell viability, Ba/F3 EGFR L858R. The method, then: (§1) An experiment to measure the activity of the compounds of the present invention against the mutant Ba/F3 EGFR cell line was performed as follows using the CellTiter-Glo system sold by Promega. The CellTiter-Glo assay is a method to confirm the cell viability by measuring ATP present in cells in cell culture. The Ba/F3 EGFR L858R, Ba/F3 EGFR L858R/T790M, Ba/F3 EGFR L858R/T790M/C797S mutant cell line was used. The Ba/F3 EGFR L858R, Ba/F3 EGFR L858R/T790M, and Ba/F3 EGFR L858R/T790M/C797S mutant cell lines was cultured in RPMI containing 10% FBS and 1% penicillin-streptomycin with 1 μg of puromycin in an incubator at 37° C. and 5% CO2.
(§2) Analysis of the inhibitory ability effect of the compounds against EGFR was conducted according to the following analysis reaction recipe.
(§3) 2500 cells/90 μl were passaged and cultured in a 96-well cell culture plate, and after 24 hours, treated with the compound represented by Formula 1 at a concentration of 0, 0.01, 0.03, 0.1, 0.3, 1, 3, and 10 (μM). After reaction for 72 hours, the plate treated with the compound was left at room temperature for 30 minutes, then further treated with 100 μl of reagent, and shaken at room temperature for 10 minutes. Finally, the ratio of fluorescence values at 570 nm was obtained using the equipment to quantitatively measure and confirmed the inhibitory ability of the compounds. The measurement values measured at eight compound concentrations were analyzed using the Prism program (version 5.01, Graphpad Software, Inc.), and the IC50 value, which is an indicator of the inhibitory ability of the compound, was calculated.
In general terms: In ATP-based viability assays light output follows the ATP content of the culture.

In assay [1] the test system is Ba/F3 EGFR V769_D770insASV. Kind of assay: CellTiter-Glo cell growth, Ba/F3 EGFR Ex20 insertion mutant. The method, then:
An experiment to measure the activity of the compounds of the present invention against the Ba/F3 EGFR V769_D770insASV mutant cell line was performed as follows using the CellTiter-Glo system sold by Promega. The CellTiter-Glo assay is a method to confirm the cell viability by measuring ATP present in cells in cell culture. For the Ba/F3 EGFR V769_D770insASV mutant cell line, a cell line provided by Crown Bioscience was purchased and used. The Ba/F3 EGFR V769_D770insASV mutant cell line was cultured in RPMI containing 10% FBS and 1% penicillin-streptomycin with 1 μg/ml of puromycin in an incubator at 37° C. and 5% CO2.
Analysis of the inhibitory ability effect of the compounds against the EGFR mutant cell growth was conducted according to the following analysis reaction recipe.
as §3, with “1000 cells/100 μL were passaged” for “2500 cells/90 μl were passaged”, “[…]. After reaction” for “and 10 (μM). After reaction”, “with 100 μL of reagent,” for “with 100 μl of reagent,”, “confirmed the cell growth inhibitory ability” for “confirmed the inhibitory ability”, “of the cell growth inhibitory ability” for “of the inhibitory ability”

The test system of assay [2] is Ba/F3 EGFR L858R/T790M/C797S. In words: CellTiter-Glo cell viability, Ba/F3 EGFR L858R/T790M/C797S. The method, then: as §1, §2, §3
For assay [3], the system named is Ba/F3 EGFR del19/T790M/C797S. Kind of assay: CellTiter-Glo cell viability, Ba/F3 EGFR del19/T790M/C797S. The protocol:
(§4) An experiment to measure the activity of the compounds of the present invention against the mutant Ba/F3 EGFR cell line was performed as follows using the CellTiter-Glo system sold by Promega. The CellTiter-Glo assay is a method to confirm the cell viability by measuring ATP present in cells in cell culture. For the Ba/F3 EGFR del19, Ba/F3 EGFR del19/T790M, Ba/F3 del19/T790M/C797S mutant cell line, a cell line provided by Crown Bioscience was purchased and used. The Ba/F3 EGFR del19, Ba/F3 EGFR del19/T790M, Ba/F3 del19/T790M/C797S mutant cell line was cultured in RPMI containing 10% FBS and 1% penicillin-streptomycin with 1 μg of puromycin in an incubator at 37° C. and 5% CO2.
as §2
as §3, with “cells/90 μL” for “cells/90 μl”

The next assay relates to Ba/F3 EGFR L858R/T790M. Kind of assay: CellTiter-Glo cell viability, Ba/F3 EGFR L858R/T790M. The method, then: as §1, §2, §3
Another assay has as its system Ba/F3 EGFR del19. In words: CellTiter-Glo cell viability, Ba/F3 EGFR del19. The protocol:
as §4, §2
as §3, with “cells/90 μL” for “cells/90 μl”

Molecules are shown by their SMILES.

Consider `COc1cc(N2CCC(N3CCN(C)CC3)CC2)ccc1Nc1ncc(Cl)c(Nc2cccc3c2N(S(C)(=O)=O)CC3)n1` [Example 2, 5-chloro-N2-(2-methoxy-4-(4-(4-methylpiperazin-1-yl)piperidin-1-yl)phenyl)-N4-(1-(methylsulfonyl)indolin-7-yl)pyrimidine-2,4-diamine], for which the IC50 (as a rule, the point on the concentration scale where inhibition reaches its midpoint) with Ba/F3 EGFR L858R was < 30 nM; in assay [1] it was 210 nM; in assay [2] it was < 100 nM; in assay [3], < 100 nM; in the assay on Ba/F3 EGFR L858R/T790M it was < 30 nM; in the assay with Ba/F3 EGFR del19 it was < 30 nM.

As for `COc1cc(N2CCC(N3CCN(C)CC3)CC2)ccc1Nc1ncc(Cl)c(Nc2cccc3c2N(S(C)(=O)=O)CCC3)n1` [Example 5, 5-chloro-N2-(2-methoxy-4-(4-(4-methylpiperazin-1-yl)piperidin-1-yl)phenyl)-N4-(1-(methylsulfonyl)-1,2,3,4-tetrahydroquinolin-8-yl)pyrimidine-2,4-diamine], the IC50 in the assay with Ba/F3 EGFR L858R is < 30 nM; in assay [1] it was 360 nM; in assay [3] it was < 30 nM; with Ba/F3 EGFR L858R/T790M it was < 30 nM; in the assay with Ba/F3 EGFR del19 it was < 30 nM.
